Consider 16 molecules from patent publication US11384055B2 (BIOMARIN PHARMACEUTICAL INC., priority 2017, dated 2022).

The term IC50 denotes the concentration needed to halve the response being measured.

The first assay deals with T1, Human GO (Homo sapiens, UniProt Q9UJM8).
T1 construct: purchased Novus Biologicals NBP1-72412
T1 sequence (Q9UJM8 1-370): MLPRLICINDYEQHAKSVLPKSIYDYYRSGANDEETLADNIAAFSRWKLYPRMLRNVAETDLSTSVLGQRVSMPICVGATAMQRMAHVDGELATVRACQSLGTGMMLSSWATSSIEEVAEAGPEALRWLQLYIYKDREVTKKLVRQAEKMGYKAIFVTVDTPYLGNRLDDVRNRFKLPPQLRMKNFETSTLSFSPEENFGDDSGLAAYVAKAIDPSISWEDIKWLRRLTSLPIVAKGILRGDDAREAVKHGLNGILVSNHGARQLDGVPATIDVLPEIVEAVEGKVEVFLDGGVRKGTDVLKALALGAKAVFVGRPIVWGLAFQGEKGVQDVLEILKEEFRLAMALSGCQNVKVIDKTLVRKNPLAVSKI
Kind of assay: GO enzymatic assay (coupled fluorescence/HRP assay, glycolate substrate). It counts as biochemical. To be noted: Table 1; read-out: Range (range of IC50 values calculated from the enzymatic assays). The procedure, abridged: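 Human GO incubated with glycolate substrate in 50 mM potassium phosphate, pH 7, with varying inhibitor concentrations. Activity read by coupled HRP fluorescence. IC50 taken from variable-slope sigmoidal dose-response fits of percent inhibition relative to DMSO control.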
`CC(=O)OCOC(=O)c1[nH]nnc1Oc1ccc2cc(Br)ccc2c1` [Compound 105, acetoxymethyl 4-((6-bromonaphthalen-2-yl)oxy)-1H-1,2,3-triazole-5-carboxylate]: the IC50 was 1000 to 10000 nM. As to `O=C(O)c1[nH]nnc1Oc1ccc2cc(Cl)ccc2c1` [Compound 106, 4-((6-chloronaphthalen-2-yl)oxy)-1H-1,2,3-triazole-5-carboxylic acid 2,2,2-trifluoroacetate], the IC50 is less than 100 nM. As to `CC(C)(C)C(=O)OCOC(=O)c1[nH]nnc1Oc1ccc(Cl)c(Cl)c1` [Compound 107, (pivaloyloxy)methyl 4-(3,4-dichlorophenoxy)-1H-1,2,3-triazole-5-carboxylate], the IC50 was 1000 to 10000 nM. Regarding `CC(C)C(=O)OCOC(=O)c1[nH]nnc1Oc1ccc(Cl)c(Cl)c1` [Compound 108, (isobutyryloxy)methyl 4-(3,4-dichlorophenoxy)-1H-1,2,3-triazole-5-carboxylate], the IC50 is 100 to 1000 nM.

Turning to `CC(=O)OCOC(=O)c1[nH]nnc1Oc1ccc(Cl)c(Cl)c1` [Compound 109, acetoxymethyl 4-(3,4-dichlorophenoxy)-1H-1,2,3-triazole-5-carboxylate], the IC50 is less than 100 nM. On to `O=C(O)c1[nH]nnc1OC1CCc2cc(Cl)c(Cl)cc2C1` (stereo not shown) [Compound 111, 4-((6,7-dichloro-1,2,3,4-tetrahydronaphthalen-2-yl)oxy)-1H-1,2,3-triazole-5-carboxylic acid 2,2,2-trifluoroacetate], for which the IC50 was less than 100 nM.

Regarding `O=C(OC1CC1)c1[nH]nnc1Oc1ccc(Cl)c(Cl)c1` [Compound 112, cyclopropyl 4-(3,4-dichlorophenoxy)-1H-1,2,3-triazole-5-carboxylate], the IC50 was greater than 10000 nM. For `O=C(O)c1[nH]nnc1Oc1ccc2cccnc2c1` [Compound 113, 4-(quinolin-7-yloxy)-1H-1,2,3-triazole-5-carboxylic acid 2,2,2-trifluoroacetate], the IC50 is less than 100 nM. For the molecule `O=C(O)c1[nH]nnc1Oc1cccc(OC(F)(F)F)c1` [Compound 114, 4-(3-(trifluoromethoxy)phenoxy)-1H-1,2,3-triazole-5-carboxylic acid], the IC50 was less than 100 nM. As to `O=C(O)c1[nH]nnc1Oc1cnc2ccccc2c1` [Compound 115, 4-(quinolin-3-yloxy)-1H-1,2,3-triazole-5-carboxylic acid 2,2,2-trifluoroacetate], the IC50 was 100 to 1000 nM. `O=C(OC1CC1)c1[nH]nnc1Oc1ccc2c(c1)CCCC2` [Compound 116, cyclopropyl 4-((5,6,7,8-tetrahydronaphthalen-2-yl)oxy)-1H-1,2,3-triazole-5-carboxylate]: the IC50 was greater than 10000 nM. `O=C(O)c1[nH]nnc1OC1CCc2ccccc2C1` (stereo not shown) [Compound 117, 4-((1,2,3,4-tetrahydronaphthalen-2-yl)oxy)-1H-1,2,3-triazole-5-carboxylic acid 2,2,2-trifluoroacetate]: the IC50 is less than 100 nM. With `O=C(O)c1[nH]nnc1Oc1ccc2ccncc2c1` [Compound 118, 4-(isoquinolin-7-yloxy)-1H-1,2,3-triazole-5-carboxylic acid 2,2,2-trifluoroacetate], the IC50 is less than 100 nM. On to `O=C(O)c1[nH]nnc1Oc1ccc(-c2ccc(OC(F)(F)F)cc2)c(Cl)c1` [Compound 119, 4-((2-chloro-4′-(trifluoromethoxy)-[1,1′-biphenyl]-4-yl)oxy)-1H-1,2,3-triazole-5-carboxylic acid], for which the IC50 was less than 100 nM.

Staying with this assay, now noted: Table 6; GO enzymatic assay; read-out: Range (range of IC50 values calculated from the enzymatic assays).
With `O=C(O)c1[nH]nnc1O[C@@H]1CCc2cc(Cl)c(Cl)cc2C1` [Compound 111-1, (R)-4-((6,7-dichloro-1,2,3,4-tetrahydronaphthalen-2-yl)oxy)-1H-1,2,3-triazole-5-carboxylic acid], the IC50 was less than 100 nM. Take `O=C(O)c1[nH]nnc1O[C@H]1CCc2cc(Cl)c(Cl)cc2C1` [Compound 111-2, (S)-4-((6,7-dichloro-1,2,3,4-tetrahydronaphthalen-2-yl)oxy)-1H-1,2,3-triazole-5-carboxylic acid]: the IC50 is less than 100 nM.
